Laboratory results from article PMC9964544, “Evidence of Insulin-Sensitizing and Mimetic Activity of the Sesquiterpene Quinone Avarone, a Protein Tyrosine Phosphatase 1B and Aldose Reductase Dual Targeting Agent from the Marine Sponge Dysidea avara” (Pharmaceutics, 2023).
Entries after “also recorded” stand apart in the source; their conditions may differ.

Columns and labels:
C2C12 cells [1] = assay: Glucose uptake assay (2-NBDG, flow cytometry) in C2C12 cells; assay type: cell-based; settings: 30 min
Protocol: To evaluate the impact of avarone (2) on the insulin signaling pathway, C2C12 cells were plated on P35 dishes and grown until 70% confluence. Then, cells were washed with phosphate-buffered saline (PBS) and incubated for 24 h in the presence of a starvation medium (DMEM high glucose containing 2 mM glutamine, 100 U/mL of penicillin, and 100 μg/mL of streptomycin). After this time, cells were stimulated for 30 min with 10 nM insulin (Humulin R, Ely Lilly, Italy) with avarone (2) or the insulin-avarone combination. After this time, cells were washed with cold PBS and lysed using 100 µL of 1X Laemmli sample buffer solution (50 mM Tris-HCl pH 6.8, 2% SDS, 10% glycerol, 1% β-mercaptoethanol, 12.5 mM EDTA, 0.02% bromophenol blue). Cell proteins were withdrawn, transferred in an Eppendorf tube and boiled for 5 min. All samples were stored at −20 °C before the analysis. Analysis of samples was carried out using SDS-PAGE; after electrophoresis, proteins were transferred on a PVDF membrane by Western blot. Phosphorylation levels of the insulin receptor β chain and of the kinase Akt were evaluated using specific antibodies: IR β subunit, clone CT-3 (MABS65) was from Santa Cruz Biotechnology (Santa Cruz, CA, USA); pIR β subunit, Y1162/1163 (sc-25103-R) was from Merck-Millipore (Burlington, MA, USA). Akt (9272S) and p-Akt (9271S) antibodies were from Cell Signaling Technology (Danvers, MA, USA). Finally, β-actin and clone C-4 (sc-47778) were from Merck-Millipore (Burlington, MA, USA). Anti-rabbit and anti-mouse secondary antibodies were from Santa Cruz Biotechnology (Santa Cruz, CA, USA). Detection was performed using Clarity western ECL substrates (BioRad Laboratories, Inc. 1000 Alfred Nobel DriveHercules, CA, USA). Quantitation of the images obtained was carried out using iBright Analysis Software (Thermo Fisher Scientific 168 Third Avenue Waltham, MA, USA, 02451). Glucose uptake was evaluated as previously described. […] Intrinsic and 2-NBDG-derived cell fluorescences were determined using a flow cytometer (FACSCanto II, BD Biosciences, San Jose, CA, USA). […] Quantitative analysis was carried out using FlowJo software (FlowJo^TM v10. BD FlowJo™ Software for Windows Version 10. Ashland, OR: Becton, Dickinson and Company; 2021).
Figure 8 Glucose uptake assay. […] After, cells were washed with PBS, detached using trypsin, collected by centrifugation, and analyzed using a flow cytometer (FACSCanto II, BD Biosciences). […] For each experiment, 10,000 events were analyzed. […] (B) Quantitation of fluorescence levels. […]
Figure 9 Impact of cytochalasin B on avarone-induced glucose uptake. […] After, cells were washed and incubated for 3 h with 40 µM 2-NBDG and then analyzed using a flow cytometer (FACSCanto II, BD Biosciences). For each experiment, 10,000 events were analyzed. […]

Human PTP1B = target: T1, Human PTP1B (Homo sapiens, UniProt P18031); assay: Kinetic analysis of PTP1B inhibition (Lineweaver-Burk plot, KM,app fit, dilution assay); settings: for Ki: fit of KM,app against avarone concentration, Equation (3)
T1 sequence (P18031 1-302): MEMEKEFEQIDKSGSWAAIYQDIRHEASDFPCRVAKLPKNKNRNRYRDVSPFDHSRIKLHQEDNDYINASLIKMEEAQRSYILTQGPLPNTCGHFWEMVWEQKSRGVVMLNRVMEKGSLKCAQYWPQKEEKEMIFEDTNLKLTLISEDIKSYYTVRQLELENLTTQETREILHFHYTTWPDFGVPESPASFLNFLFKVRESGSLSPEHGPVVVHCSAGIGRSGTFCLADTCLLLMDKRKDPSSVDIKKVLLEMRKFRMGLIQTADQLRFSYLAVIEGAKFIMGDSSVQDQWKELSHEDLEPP
Protocol: Equation (2) refers to a general case of a tight binding non-competitive inhibition model. […] The mechanism of action of avarone was evaluated by analyzing the effect of increasing avarone concentrations on the main kinetic parameters (KM and Vmax) of PTP1B. Data obtained were analyzed using the Lineweaver–Burk plot. The value of Ki was determined using the appropriate equations.
The second inhibitor molecule (IB) can only bind to EIA, generating the ternary complex (EIAIB). Considering the prevailing rapid equilibrium conditions, it was possible to derive Equation (3), which describes the dependence of KM on the avarone concentration. […] (3) KM,app=KM×{1+[I]/KiA+[I]^2/KiA×KiB}
Figure 4 Impact of avarone on PTP1B-catalyzed hydrolysis of pNPP: the Lineweaver–Burk plot. Data reported in the figure were obtained by measuring the initial hydrolysis rate of pNPP at seven different concentrations, in the presence of increasing concentration of avarone. The concentrations of avarone used were: 0 µM, (●); 4 µM, (☐); 5.5 µM, (▲); 7 µM (▽). Each test was carried out in triplicate. Data reported in the figure represent the mean value ± SD.
Figure 5 Determination of KiA and KiB for avarone. Dependence of KM,app from the avarone concentration. Data obtained were fitted using Equation (3). Data fitting was obtained using OriginPlus 2021 software.
Dilution assay. An aliquot of PTP1B was incubated for 1 h at 37°C in the
presence of saturating concentration (50 µM) of avarone (2). A control test was prepared
diluting PTP1B solution with the same volume of DMSO, the solvent used to dissolve 2.
After 1 h, an aliquot of samples was withdrawn and diluted 400 fold in buffer assay to
evaluate the residual activity of the enzyme. All tes ts were carried out in triplicate. Data
obtained were normalized respect to control sample.
Dependence of K M and Vmax from avarone (2) concentration. The concentration
of avarone used were: 0, 4.0, 5.5, and 7.0 µM. To calculate both K M and Vmax valued, we
determined the initial hydrolysis rate at seven different substrate (pNPP) concentrations
(0.5, 1, 2 4, 8 16 , 25 mM). Experimental data were fitted with Michaelis -Menten equation
using OriginPro 2021 software

human recombinant AKR1B1 = target: T2, human recombinant AKR1B1 (Homo sapiens, UniProt P15121); assay: Kinetic characterization and reversibility of AKR1B1 inhibition (Morrison equation, tight binding); assay type: biochemical
T2 construct: made in house
Description: AKR1B1 activity measurements obtained at each substrate concentration were fitted by nonlinear regression analysis to the Morrison equation reported below (Equation (1)). (1) vi=1−([ET]+[I]+Kiapp)−([ET]+[I]+Kiapp)^2−4[ET][I]/2[ET]
This allowed the evaluation of Kiapp . In order to obtain the inhibition constants Ki (dissociation constant of the EI complex) and Ki′ , (dissociation constant of the EIS complex), the Kiapp values were plotted against substrate concentration and fitted by nonlinear regression analysis to the following equation:(2) Kiapp=([S]+ KM)/(KM/Ki+[S]/Ki′)
Panel A: the activity of the purified enzyme (10 mU) was measured at the indicated concentrations of avarone in the presence of the indicated L-idose concentrations. (B) Experimental data reported in (A) were fitted to the Morrison equation (see Materials and methods, Equation (1)).

[2] = system: human microvascular endothelial cells (HMEC-1); design: method as in PMID 32075136; settings: ref [19]; read-out: IC50 cytotoxicity HMEC-1; cited from earlier work
C2C12 cells [3] = assay: Akt phosphorylation in C2C12 cells by Western blot; assay type: cell-based; settings: 30 min, serum-starved C2C12
Protocol: To evaluate the impact of avarone (2) on the insulin signaling pathway, C2C12 cells were plated on P35 dishes and grown until 70% confluence. Then, cells were washed with phosphate-buffered saline (PBS) and incubated for 24 h in the presence of a starvation medium (DMEM high glucose containing 2 mM glutamine, 100 U/mL of penicillin, and 100 μg/mL of streptomycin). After this time, cells were stimulated for 30 min with 10 nM insulin (Humulin R, Ely Lilly, Italy) with avarone (2) or the insulin-avarone combination. […] Phosphorylation levels of the insulin receptor β chain and of the kinase Akt were evaluated using specific antibodies: IR β subunit, clone CT-3 (MABS65) was from Santa Cruz Biotechnology (Santa Cruz, CA, USA); pIR β subunit, Y1162/1163 (sc-25103-R) was from Merck-Millipore (Burlington, MA, USA). […] Quantitation of the images obtained was carried out using iBright Analysis Software (Thermo Fisher Scientific 168 Third Avenue Waltham, MA, USA, 02451). Glucose uptake was evaluated as previously described. […] Intrinsic and 2-NBDG-derived cell fluorescences were determined using a flow cytometer (FACSCanto II, BD Biosciences, San Jose, CA, USA). […] Quantitative analysis was carried out using FlowJo software (FlowJo^TM v10. BD FlowJo™ Software for Windows Version 10. Ashland, OR: Becton, Dickinson and Company; 2021). […]

reversibility of PTP1B inhibition (dilution assay) (Human PTP1B; 50 µM avarone, 1 h at 37°C, diluted 400 fold): reversible inhibitor
Ki (Human PTP1B; KiA PTP1B (first inhibitor molecule)): 15100 ± 1400 nM
Ki (Human PTP1B; KiB PTP1B (second inhibitor molecule, binds EIA)): 1000 ± 100 nM
Ki' (dissociation constant of the EIS complex) AKR1B1 (human recombinant AKR1B1; L-idose substrate, tight binding non-competitive model): 55 ± 8 nM
Ki (human recombinant AKR1B1; L-idose substrate, tight binding non-competitive model, read-out: Ki (dissociation constant of the EI complex) AKR1B1): 410 ± 94 nM
SMILES: CC1=CCC[C@H]2[C@](C)(CC3=CC(=O)C=CC3=O)[C@@H](C)CC[C@]12C [avarone (2), avarone]
glucose uptake (2-NBDG fluorescence), insulin-avarone combination (C2C12 cells [1]; 25 µM avarone + 10 nM insulin, versus insulin alone): significantly increase
glucose uptake (2-NBDG fluorescence) (C2C12 cells [1]; 25 µM avarone alone, then 40 µM 2-NBDG 3 h): higher amounts of fluorescent glucose; also recorded: stimulates glucose uptake more efficiently than insulin itself
type of PTP1B inhibition (Human PTP1B; pNPP, 0-7 µM avarone, double reciprocal plot): competitive inhibitor; also recorded: cooperative pure competitive inhibition by two non-exclusive inhibitor molecules
type of AKR1B1 inhibition (human recombinant AKR1B1): “tight binding” inhibitor; also recorded: non-competitive mixed-type inhibitor
IC50 [2]: 62200 nM
Akt phosphorylation levels, insulin-avarone combination (C2C12 cells [3]; 25 µM avarone + 10 nM insulin): values higher than those observed after treatment with insulin alone
Akt phosphorylation levels (C2C12 cells [3]; 25 µM avarone alone): increase in Akt phosphorylation levels similar to that induced by insulin
